One assay concerns calvaria. The assay is described as follows: Inhibitory effect on bone absorption (calcium liberation from PTH enhanced cultured calvaria). The assay is classed as cell-based. The following applies: newborn dd mouse calvaria culture, PTH 1 x 10^-8M, 96 hours, total calcium in the culture. The procedure: The calvaria was excised from a newborn dd mouse (5 to 6 days old) under sterile conditions. The calvaria was washed with a modified Dulbecco phosphate buffer physiological saline solution containing neither calcium nor magnesium (a product of Gibco Oriental), and divided into two parts along the center suture. A half of the calvaria was cultivated in a modified Dulbecco Eagle medium (1.5 ml) (a product of Gibco Oriental) containing 2.5% fetal calf serum and 15% equine serum which had been inactivated by heating at 56°C for 20 minutes. The test compound was dissolved in dimethyl sulfoxide and 10 µl of the resulting solution was added to the culture medium to give the final concentrations of 3 x 10^-6M, 1 x 10^-5M, and 3 x 10^-5M. PTH (parathyroid hormone) was dissolved in a 0.15 M saline solution (pH 3) and 3 µl of the resulting solution was added to the culture medium to give the final concentration of 1 x 10^-8M. The culturing was carried out under the condition of 95 % air and 5 % carbon dioxide and at a temperature of 37°C for 96 hours. At 48 hours after the start of the culturing, the culture medium was renewed and the test compound and PTH treated as defined above were added thereto. For examining the effect of the test compound on calcium liberation (bone absorption) from the PTH enhanced bone, a control group, a group using PTH (1 x 10^-8M), and a group using both the test compound (3 x 10^-6M, 1 x 10^-5M, 3 x 10^-5M) and PTH were prepared. The amount of the bone absorption was determined by measuring the amount of calcium accumulated in the culture as collected after 96 hours of culturing. The total calcium concentration in the culture was measured with Calcium C Test Wako. The inhibition rate was calculated using the following equation and the result was shown in terms of 50% inhibitory concentration (IC50). Inhibition of bone absorption from PTH enhanced bone Inhibition rate (%) = [(CP - CD )/(CP - C0 )] x 100 [formula] C0 : The total calcium concentration in the culture containing neither the test compound nor PTH. CP : The total calcium concentration in the culture treated with only PTH. CD : The total calcium concentration in the culture treated . with both the test compound and PTH.

In the next assay the test system is bone density. As to the kind of experiment: Inhibitory effect on decrease of bone density by ovariectomy. In kind it is in vivo. The following applies: ovariectomized female SD strain rats, 10 mg/kg orally once a day for 3 weeks, right hindlimb, DEXA (DXA) method. The procedure: The experiment was carried out using 10-weeks-old female SD strain rats (Charles River Japan Inc.) The ovaries on both sides of the rats were excised under anesthesia using Nembutal. The test compound (10 mg/kg) was dissolved or suspended in distilled water for injection (a product of Otsuka Pharmaceutical Co., Ltd.) and administered orally once a day from the first day after the operation for 3 weeks. For the control group, distilled water for injection alone was administered. The rat was slaughtered by neck dislocation, the right hindlimb was ablated, and then the bone density of the neck was measured according to a DEXA (DXA) method [Japan Clinic, 52 (9), 2329-2334 (1994)] using bone mineral measuring apparatus DCS-600 (a product of Aloka Co., Ltd.) The inhibition rate of decrease in the bone density of the test compound-administered group was calculated from the decrease of the bone density in the test compound-administered group and that in the control group.

One may read the IC50 as the concentration that inhibits the measured activity by half.

SMILES strings stand for the structures.

Consider `O=C(c1[nH]c2ccccc2c1C(c1ccc(O)cc1)c1ccc(O)cc1)N1CCN(c2ccccc2Cl)CC1` [Compound 8, 1-{3-[Bis(4-hydroxyphenyl)methyl]indol-2-ylcarbonyl}-4-(2-chloroghenyl)piperazine], for which, in the assay with calvaria, the IC50 is greater than 30 µM.
For `CN(C)CCn1c(C(=O)N2CCN(c3ccccc3Cl)CC2)c(C(c2ccc(O)cc2)c2ccc(O)cc2)c2ccccc21.CS(=O)(=O)O` [Compound 9, 1-{3-[Bis(4-hydroxyphenyl)methyl]-1-(2-dimethylaminoethyl)indol-2-ylcarbonyl}-4-(2-chlorophenyl)piperazine methanesulfonate], the IC50 in the assay with calvaria came to 11.5 µM. Besides, in the assay with bone density, the “Inhibition rate of decrease in bone density (%)” value is given as 97%.
Taken in the same sequence, the figures for `CS(=O)(=O)O.O=C(c1c(C(c2ccc(O)cc2)c2ccc(O)cc2)c2ccccc2n1CCN1CCOCC1)N1CCN(c2ccccc2Cl)CC1` [Compound 10, 1-{3-[Bis(4-hydroxyphenyl)methyl]-1-(2-morpholinoethyl)indol-2-ylcarbonyl}-4-(2-chlorophenyl)-piperazine methanesulfonate] were 9.6 µM and 33%.
Take `CCCNC(=O)c1c(C(c2ccc(O)cc2)c2ccc(O)cc2)c2ccccc2n1CCN(C)C` [Compound 11, N-Propyl-3-[bis(4-hydroxyphenyl)methyl]-1-(2-dimethylaminoethyl)indole-2-carboxamide methanesulfonate]: the IC50 with calvaria was greater than 30 µM.
Take `CC(C)NC(=O)c1c(C(c2ccc(O)cc2)c2ccc(O)cc2)c2ccccc2n1CCN(C)C` [Compound 12, N-Isopropyl-3-[bis(4-hydroxyphenyl)methyl]-1-(2-dimethylaminoethyl)indole-2-carboxamide methanesulfonate]: the IC50 in the assay with calvaria was greater than 30 µM.
Still for that read-out and setting: under `CN(C)CCn1c(C(=O)N2CCCCC2)c(C(c2ccc(O)cc2)c2ccc(O)cc2)c2ccccc21` [Compound 13, 1-{3-[Bis(4-hydroxyphenyl)methyl]-1-(2-dimethylaminoethyl)indol-2-ylcarbonyl)piperidine methanesulfonate] stands 15 µM; under `CN(C)CCn1c(C(=O)NC2CCCCCC2)c(C(c2ccc(O)cc2)c2ccc(O)cc2)c2ccccc21` [Compound 14, N-Cycloheptyl-3-[bis (4-hydroxyphenyl)methyl]-1-(2-dimethylaminoethyl)indole-2-carboxamide methanesulfonate], 11.9 µM.
